Experimental data published in patent US20050130252A1, “Stabilized susceptibility tests of aerobic pathogens” (Wyeth Holdings Corporation, priority 2003, published 2005).
Values after ≈ are worked out from the molar mass of the structure shown. Where two headings read alike, the source gives them in different places.

What was measured:
Assay in all cases: Broth microdilution MIC
Type in all cases: cell-based
[1] = system: S. pneumoniae GC1894 (Clinical); conditions: Streptococcus pneumoniae, read-out: Minimal Inhibitory Concentration
Experimental: (§1) The process for preparing susceptibility test medium are the following steps: • a. Preparing Mueller Hinton Broth II medium by adding 22 grams powdered media to 1.0 liter distilled water; • b. Autoclaving (121° C., 15 psi, 15 minutes) and cooling the medium; • c. Adding Oxyrase® up to about 10% final volume and keeping at 35-37° C. in an incubator for 30 minutes; • d. Adding about 50 μL to each well of a 96 well microtiter plate; • e. Weighing drug and adding broth to drug to bring up to about (standard 128 μg/ml); • f. Adding 50 μL of the drug to the first column of the titer plate; • g. Diluting by two-fold serial diluting across or down the plate. • h. Preparing a Prompt™ inoculum at 10^8 CFU/ml; • i. Diluting inoculum 1:100 in the broth at […] in 9.9 ml (1:100) is 10^6 colony forming units (CFU) forming the adjusted inoculum; • j. Adding 50 μL of the adjusted inoculum to the wells of the microtiter plate; • k. Incubating the plates at 35-37° C. for 18-22 hours; and • l. Reading, with the unaided eye, the MIC.
(§2) The in vitro activities of tigecycline and control antibiotics were determined by the broth microdilution method as recommended by the NCCLS. (National Committee for Clinical Laboratory Standards, 2003. Methods for Dilution Antimicrobial Susceptibility Tests for Bacteria That Grow Aerobically; Approved Standards: M7-A6, Sixth ed, vol. 23., National Committee for Clinical Laboratory Standards Wayne, Pa.) was used for the standard procedures. MBH with 5% lysed horse blood was used for testing S. pneumoniae and Haemophilus Test Medium was used for testing H. influenzae. Oxyrase® (Oxyrase Inc, Mansfield, Ohio) was used according to the manufacturer's instructions by adding 1 ml of Oxyrase® to 50 ml of media. Media age studies were performed by preparing MHB in multiple flasks, then storing the media under various conditions. MICs were usually performed in duplicate on each day of testing. Storage under anaerobic conditions was conducted in an anaerobic chamber (MACS MG 1000, Don Whitley Scientific LTD). The pH of the media was determined by pH meter (Corning 430). A comparison of the in vitro activity of tigecycline by agar and broth dilution methodolgies with and without Oxyrase® against clinical isolates is shown in Table 1.

[2] = system: M. catarrhalis GC6907 (Clinical); conditions: Moraxella catarrhalis, read-out: Minimal Inhibitory Concentration
Experimental: as §1, §2

[3] = system: Staphylococcus aureus GC1131 Clinical isolate; conditions: for In Vitro Activity of Tigecycline: Broth, S. aureus GC1131; for MIC: Staphylococcus aureus, S. aureus GC1131 (Clinical), read-out: Minimal Inhibitory Concentration
Experimental: as §1, §2

[4] = system: Staphylococcus aureus GC4536 Smith MP -In Vivo; conditions: for In Vitro Activity of Tigecycline: Broth, S. aureus GC4536 Smith; for MIC: Staphylococcus aureus, S. aureus GC4536 (Smith MP - In Vivo), read-out: Minimal Inhibitory Concentration
Experimental: as §1, §2

[5] = system: Enterococcus faecalis GC2242 Vancomycin-Resistant; conditions: for In Vitro Activity of Tigecycline: Broth, E. faecalis GC2242 Vancomycin-Resistant; for MIC: Enterococcus faecalis, read-out: Minimal Inhibitory Concentration
Experimental: as §1, §2

[6] = system: Escherichia coli GC2203 ATCC Control; conditions: for In Vitro Activity of Tigecycline: Broth, E. coli GC2203 ATCC Control; for MIC: Escherichia coli, E. coli GC2203 (ATCC Control), read-out: Minimal Inhibitory Concentration
Experimental: as §1, §2

[7] = system: Staphylococcus aureus GC1079 tet(K)
Experimental: as §1, §2

[8] = system: Staphylococcus aureus GC6466 Clinical - tet(M); conditions: for In Vitro Activity of Tigecycline: Broth, S. aureus GC6466 tet(M); for MIC: Staphylococcus aureus, read-out: Minimal Inhibitory Concentration
Experimental: as §1, §2

[9] = system: Staphylococcus aureus GC6467 Clinical - tet(M) + (K); conditions: S. aureus GC6467 tet(M) + (K)
Experimental: as §1, §2

[10] = system: S. pneumoniae GC4465 (Clinical); conditions: Streptococcus pneumoniae, read-out: Minimal Inhibitory Concentration
Experimental: as §1, §2

[11] = system: Escherichia coli GC4560 IMP mutant; conditions: E. coli GC4560 IMP mutant
Experimental: as §1, §2

[12] = system: H. influenzae GC6896 (ATCC Control); conditions: Haemophilus influenzae, read-out: Minimal Inhibitory Concentration
Experimental: as §1, §2

[13] = system: S. pyogenes GC4563 (Clinical); conditions: Streptococcus pyogenes, read-out: Minimal Inhibitory Concentration
Experimental: as §1, §2

[14] = system: Candida albicans GC3066 ATCC Control; conditions: for In Vitro Activity of Tigecycline: Broth, C. albicans GC3066 ATCC Control; for MIC: Candida albicans, C. albicans GC3066 ATCC (Control), read-out: Minimal Inhibitory Concentration
Experimental: as §1, §2

[15] = 336 h, Aged Media (two weeks at RT)

Molecule CN(C)c1cc(NC(=O)CNC(C)(C)C)c(O)c2c1C[C@H]1C[C@H]3[C@H](N(C)C)C(O)=C(C(N)=O)C(=O)[C@@]3(O)C(O)=C1C2=O [Tigecycline, tigecycline] has an MIC [1, 15] of 0.03 µg/mL (≈ 0.0512 µM), an MIC ([1]; Fresh Media) of less than 0.008 µg/mL and an MIC [2, 15] of 0.03 µg/mL (≈ 0.0512 µM). For the same molecule, the MIC ([2]; Fresh Media) was 0.015 µg/mL (≈ 0.0256 µM), the “In Vitro Activity of Tigecycline” value ([3]; Oxyrase (2%)) was 0.25 and the “In Vitro Activity of Tigecycline” value ([3]; no Oxyrase) was 0.50. For the same molecule, the MIC [3, 15] was 0.25 µg/mL (≈ 0.427 µM), the MIC ([3]; Fresh Media) was 0.25 µg/mL (≈ 0.427 µM) and the “In Vitro Activity of Tigecycline” value ([4]; Oxyrase (2%)) was 0.12. For the same molecule, the “In Vitro Activity of Tigecycline” value ([4]; no Oxyrase) was 0.50, the MIC [4, 15] was 0.25 µg/mL (≈ 0.427 µM) and the MIC ([4]; Fresh Media) was 0.12 µg/mL (≈ 0.205 µM). For the same molecule, the “In Vitro Activity of Tigecycline” value ([5]; Oxyrase (2%)) was 0.12, the “In Vitro Activity of Tigecycline” value ([5]; no Oxyrase) was 0.50 and the MIC ([5]; 336 h) was 0.12 µg/mL (≈ 0.205 µM). The MIC [5] was 0.06 µg/mL (≈ 0.102 µM), the “In Vitro Activity of Tigecycline” value ([6]; Oxyrase (2%)) was 0.12 and the “In Vitro Activity of Tigecycline” value ([6]; no Oxyrase) was 0.25. The MIC [6, 15] was 0.12 µg/mL (≈ 0.205 µM), the MIC ([6]; Fresh Media) was 0.03 µg/mL (≈ 0.0512 µM) and the “In Vitro Activity of Tigecycline” value ([7]; Broth, no Oxyrase, S. aureus GC1079 tet(K)) was 0.50. For the same molecule, the MIC ([7]; Staphylococcus aureus, read-out: Minimal Inhibitory Concentration) was 0.25 µg/mL (≈ 0.427 µM), the “In Vitro Activity of Tigecycline” value ([8]; Oxyrase (2%)) was 0.12 and the “In Vitro Activity of Tigecycline” value ([8]; no Oxyrase) was 0.50. For the same molecule, the MIC ([8]; 336 h) was 0.25 µg/mL (≈ 0.427 µM), the MIC [8] was 0.12 µg/mL (≈ 0.205 µM) and the “In Vitro Activity of Tigecycline” value ([9]; Oxyrase (2%)) was 0.50. For the same molecule, the “In Vitro Activity of Tigecycline” value ([9]; no Oxyrase) was 1, the MIC [10, 15] was 0.03 µg/mL (≈ 0.0512 µM) and the MIC ([10]; Fresh Media) was less than 0.008 µg/mL. The “In Vitro Activity of Tigecycline” value ([11]; Oxyrase (2%)) was 0.03, the “In Vitro Activity of Tigecycline” value ([11]; no Oxyrase) was 0.25 and the MIC [12, 15] was 0.5 µg/mL (≈ 0.854 µM). For the same molecule, the MIC ([12]; Fresh Media) was 0.25 µg/mL (≈ 0.427 µM), the MIC [13, 15] was 0.03 µg/mL (≈ 0.0512 µM) and the MIC ([13]; Fresh Media) was less than 0.008 µg/mL. The “In Vitro Activity of Tigecycline” value ([14]; Oxyrase (2%)) was greater than 16, the “In Vitro Activity of Tigecycline” value ([14]; no Oxyrase) was greater than 16 and the MIC [14, 15] was greater than 8 µg/mL. For the same molecule, the MIC ([14]; Fresh Media) was greater than 8 µg/mL.
